Literature values in patent US11318122B2, “Pharmaceutical combination and its use for treating synucleinopathties” (CHASE THERAPEUTICS CORPORATION, priority 2017, dated 2022).

How the values were obtained:
[1] = tested on: extracellular concentrations of norepinephrine and dopamine; conditions: large doses, rodents, acute systemic administration
MPTP-induced damage = conditions: toxin-induced model of PD
[2] = tested on: 6-OHDA (6-hydroxydopamine)-induced damage; conditions: toxin-induced model of PD
[3] = target: alpha-synuclein in human neuroblastoma SH5Y cells (Homo sapiens, UniProt P37840)
[4] = 5 mg/day of pramipexole
[5] = target: human wild-type alpha-synuclein (Homo sapiens, UniProt P37840); conditions: by H2O2 plus cytochrome c
synuclein = synuclein (Homo sapiens, UniProt P37840)
[6] = doses approved for the treatment of motor symptoms of PD; 535 PD patients

SMILES | extracellular concentrations of norepinephrine and dopamine [1] | protection against MPTP-induced damage (MPTP-induced damage) | protection against 6-OHDA-induced damage [2] | aggregation of alpha-synuclein [3] | nausea [4] | vomiting [4] | patients not able to complete the study ([4]; presumably because of intolerable GI adverse events) | in vitro oligomerization of human wild-type alpha-synuclein [5] | toxic effects of rotenone on dopaminergic neurons (dopaminergic neurons; mouse PD model) | immunoreactivity for alpha-synuclein (dopaminergic neurons; rotenone mouse PD model) | synuclein oligomer formation in vitro (synuclein) | neuroprotective (disease modifying) activity [6]
CNCCC(Oc1ccc(C(F)(F)F)cc1)c1ccccc1 (stereo not drawn) [fluoxetine, 1-methylamino-3-phenyl-3-[4-(trifluoromethyl)phenoxy]propane] | significant increase | can protect | can protect | – | – | – | – | – | – | – | – | –
CCCN[C@H]1CCc2nc(N)sc2C1 [pramipexole, (S)-6-propylamino-4,5,6,7-tetrahydro-1,3-benzothiazole-2-amine] | – | – | – | inhibit the aggregation | 76 % of patients | 39 % of patients | 36 % of patients | decreases the in vitro oligomerization | inhibits the toxic effects of rotenone | reducing immunoreactivity | diminishes synuclein oligomer formation | failed to evidence neuroprotective (i.e., disease modifying) activity
